Where two headings read alike, the source gives them in different places.
Legend:
[1] = tested on: T-Rex 293 cell line SC3 cells having increased expression of androgen receptor protein due to exposure to doxycycline; assay: Cellular growth inhibition assay, T-Rex 293 SC3 cells with doxycycline (CellTiter-Glo, 72 hours); format: cell-based; conditions: T-Rex 293 SC3 cells with increased androgen receptor expression due to doxycycline (10 ng/mL)
In short: (§1)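 Doxycycline (10 ng/mL) was either included or omitted to toggle wild-type androgen receptor expression in SC3 cells, a T-Rex 293 clone, grown in stripped-serum, phenol red-free medium. After 72 hours with compound, viable cells were quantified by CellTiter-Glo 2.0.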

VCaP cells = assay: Cellular growth inhibition assay for VCaP cells (CellTiter-Glo, 72 hours); format: cell-based, human
In short: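 Luminescent viability signal after 72 h of compound exposure gave GI50 values by four-parameter nonlinear regression. Compounds were added in 0.5% DMSO to cells plated 24 h earlier at 5000/well in DMEM containing 10% FBS.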

[2] = tested on: T-Rex 293 cell line SC3 cells lacking increased expression of androgen receptor protein; assay: Cellular growth inhibition assay, T-Rex 293 SC3 cells without doxycycline (CellTiter-Glo, 72 hours); format: cell-based; conditions: T-Rex 293 cell line SC3 cells not exposed to doxycycline (lacking increased androgen receptor expression)
In short: as §1

Molecule `Cc1sc2c(c1C)C(c1ccc(C3CCC4(CCN(c5ccc(C(=O)N[C@H]6CC[C@H](Oc7ccc(C#N)c(Cl)c7)CC6)nn5)CC4)C3)cc1)=NC1(CC1)c1nnc(C)n1-2` (stereo partly drawn) [I-520] has a GI50 [1] of less than 0.5 µM, a GI50 (VCaP cells) of less than 0.5 µM and a GI50 [2] greater than 3 µM.

In the case of `Cc1sc2c(c1C)C(c1ccc(N3CCC4(CC3)CCN(c3ccc(C(=O)N[C@H]5CC[C@H](Oc6ccc(C#N)c(Cl)c6)CC5)nn3)C4)cc1)=N[C@H](C)c1nnc(C)n1-2` [I-591], the GI50 ([1]; 72 h) was less than 0.5 µM, the GI50 (VCaP cells; Homo sapiens, VCaP, 72 h) was less than 0.5 µM and the GI50 ([2]; 72 h) was greater than 3 µM.

`Cc1sc2c(c1C)C(c1ccc(C#CC3CC4(CCCN(c5ccc(C(=O)N[C@H]6CC[C@H](Oc7ccc(C#N)c(Cl)c7)CC6)nn5)C4)C3)nc1)=N[C@@H](C)c1nnc(C)n1-2` (stereo partly drawn) [I-460] gave a GI50 [1] of less than 0.5 µM, a GI50 (VCaP cells) of less than 0.5 µM and a GI50 [2] of 0.5 to 1.5 µM.

`Cc1sc2c(c1C)C(c1ccc(N3CC(C4CCN(c5ccc(C(=O)N[C@H]6CC[C@H](Oc7ccc(C#N)c(Cl)c7)CC6)nn5)C4)C3)cc1)=NC1(CC1)c1nnc(C)n1-2` (stereo partly drawn) [I-550] showed a GI50 ([1]; 72 h) of less than 0.5 µM, a GI50 (VCaP cells; Homo sapiens, VCaP, 72 h) of less than 0.5 µM and a GI50 [2] of less than 0.5 µM.

In the case of `Cc1sc2c(c1C)C(c1ccc(OC3CCC4(C3)CN(c3ccc(C(=O)N[C@H]5CC[C@H](Oc6ccc(C#N)c(Cl)c6)CC5)nn3)CCO4)cc1)=N[C@@H](C)c1nnc(C)n1-2` (stereo partly drawn) [I-542], the GI50 [1] was less than 0.5 µM, the GI50 (VCaP cells) was 1.5 to 3 µM and the GI50 [2] was less than 0.5 µM.

Work on `Cc1sc2c(c1C)C(c1ccc(N3CC[C@@H](CNc4ncc(C(=O)N[C@H]5CC[C@H](Oc6ccc(C#N)c(Cl)c6)CC5)cn4)C3)cc1)=NC(Cc1ncco1)c1nnc(C)n1-2` (stereo partly drawn) [I-795] yielded a GI50 ([1]; 72 h) of less than 0.5 µM, a GI50 (VCaP cells; Homo sapiens, VCaP, 72 h) of 0.5 to 1.5 µM and a GI50 ([2]; 72 h) of less than 0.5 µM.

`Cc1sc2c(c1C)C(c1ccc(C3CCC4(CC3)CCN(c3ccc(C(=O)N[C@H]5CC[C@H](Oc6ccc(C#N)c(Cl)c6)CC5)nn3)CC4)nc1)=N[C@@H](C)c1nnc(C)n1-2` [I-630] showed a GI50 ([1]; 72 h) of less than 0.5 µM, a GI50 (VCaP cells) of 1.5 to 3 µM and a GI50 ([2]; 72 h) of less than 0.5 µM.

`Cc1sc2c(c1C)C(c1ccc(CCCC3CCCN(c4ccc(C(=O)N[C@H]5CC[C@H](Oc6ccc(C#N)c(Cl)c6)CC5)nn4)CC3)cc1)=N[C@@H](C)c1nnc(C)n1-2` (stereo partly drawn) [I-669] gave a GI50 ([1]; 72 h) of less than 0.5 µM, a GI50 (VCaP cells; Homo sapiens, VCaP, 72 h) of less than 0.5 µM and a GI50 [2] greater than 3 µM.

`Cc1sc2c(c1C)C(c1ccc(OC3CC4(C3)CC3(CCN(c5ccc(C(=O)N[C@H]6CC[C@H](Oc7ccc(C#N)c(Cl)c7)CC6)nn5)CC3)C4)nc1)=NCc1nnc(C)n1-2` [I-479] gave a GI50 ([1]; 72 h) of less than 0.5 µM, a GI50 (VCaP cells; Homo sapiens, VCaP, 72 h) of less than 0.5 µM and a GI50 ([2]; 72 h) greater than 3 µM.

`Cc1sc2c(c1C)C(c1ccc(CC3CCC4(CCCN(c5ccc(C(=O)N[C@H]6CC[C@H](Oc7ccc(C#N)c(Cl)c7)CC6)nn5)C4)C3)cn1)=N[C@@H](C)c1nnc(C)n1-2` (stereo partly drawn) [I-635] showed a GI50 [1] of less than 0.5 µM, a GI50 (VCaP cells) of less than 0.5 µM and a GI50 [2] of less than 0.5 µM.

For `Cc1sc2c(c1C)C(c1ccc(CC3CC4(CCCN(c5ccc(C(=O)N[C@H]6CC[C@H](Oc7ccc(C#N)c(Cl)c7)CC6)nn5)C4)C3)cn1)=NC(Cc1ncco1)c1nnc(C)n1-2` (stereo partly drawn) [I-770], the GI50 [1] was less than 0.5 µM, the GI50 (VCaP cells) was less than 0.5 µM and the GI50 [2] was less than 0.5 µM.

In the case of `Cc1sc2c(c1C)C(c1ccc(OCC3CC4(CCCN(c5ccc(C(=O)N[C@H]6CC[C@H](Oc7ccc(C#N)c(Cl)c7)CC6)nn5)C4)C3)cc1)=NCc1nnc(C)n1-2` (stereo partly drawn) [I-489], the GI50 [1] was less than 0.5 µM, the GI50 (VCaP cells) was less than 0.5 µM and the GI50 [2] was greater than 3 µM.

Work on `COCC[C@@H]1N=C(c2ccc(N3CCC4(CCCN(c5ccc(C(=O)N[C@H]6CC[C@H](Oc7ccc(C#N)c(Cl)c7)CC6)nn5)C4)CC3)cc2)c2c(sc(C)c2C)-n2c(C)nnc21` [I-569] yielded a GI50 ([1]; 72 h) of less than 0.5 µM, a GI50 (VCaP cells; Homo sapiens, VCaP, 72 h) greater than 3 µM and a GI50 ([2]; 72 h) greater than 3 µM.

With `Cc1sc2c(c1C)C(c1ccc(N3C[C@@H]4CN(c5ccc(C(=O)N[C@H]6CC[C@@H](Oc7ccc(C#N)c(Cl)c7)CC6)nn5)C[C@@H]4C3)cc1)=N[C@@H](Cc1ncco1)c1nnc(C)n1-2` [I-825, 6-[(3aR,6aS)-2-[4-[(9S)-4,5,13-trimethyl-9-(oxazol-2-ylmethyl)-3-thia-1,8,11,12-tetrazatricyclo[8.3.0.02,6]trideca-2(6),4,7,10,12-pentaen-7-yl]phenyl]-1,3,3a,4,6,6a-hexahydropyrrolo[3,4-c]pyrrol-5-yl]-N-[4-(3-chloro-4-cyano-phenoxy)cyclohexyl]pyridazine-3-carboxamide] the GI50 ([1]; 72 h) was less than 0.5 µM, the GI50 (VCaP cells; Homo sapiens, VCaP, 72 h) was less than 0.5 µM and the GI50 ([2]; 72 h) was less than 0.5 µM.

Molecule `Cc1sc2c(c1C)C(c1ccc(C#CC3CC4(CCCN(c5ccc(C(=O)N[C@H]6CC[C@H](Oc7ccc(C#N)c(Cl)c7)CC6)nn5)C4)C3)cn1)=NC(C)c1nnc(C)n1-2` (stereo partly drawn) [I-481] has a GI50 ([1]; 72 h) of less than 0.5 µM, a GI50 (VCaP cells) of less than 0.5 µM and a GI50 [2] of less than 0.5 µM.

With `CC[C@@H]1N=C(c2ccc(C#CC3CC4(C3)CN(c3ccc(C(=O)N[C@H]5CC[C@H](Oc6ccc(C#N)c(Cl)c6)CC5)nn3)C4)cc2)c2c(sc(C)c2C)-n2c(C)nnc21` [I-531] the GI50 ([1]; 72 h) was less than 0.5 µM, the GI50 (VCaP cells; Homo sapiens, VCaP, 72 h) was less than 0.5 µM and the GI50 ([2]; 72 h) was less than 0.5 µM.

Work on `Cc1sc2c(c1C)C(c1ccc(C#CC3CC4(C3)CN(c3ccc(C(=O)N[C@H]5CC[C@H](Oc6ccc(C#N)c(Cl)c6)CC5)nn3)C4)cc1)=NC(C(F)(F)F)c1nnc(C)n1-2` (stereo partly drawn) [I-723] yielded a GI50 [1] greater than 3 µM, a GI50 (VCaP cells; Homo sapiens, VCaP, 72 h) of less than 0.5 µM and a GI50 [2] greater than 3 µM.

— patent US20260109707A1, “HETEROBIFUNCTIONAL COMPOUNDS AND METHODS OF TREATING DISEASE” (Halda Therapeutics OpCo. Inc., priority 2022, published 2026)
